Measured values reported in the NIST ThermoML archive (doi:10.1021/je020120h).
Numbers after ± are expanded uncertainties.

Legend:
[1] = 298.15 K; 101.33 kPa; Liquid; Vibrating tube method
[2] = excess molar enthalpy (molar enthalpy of mixing); xn = mol fraction of the nth substance listed; conditions: 298.15 K, 101.3 kPa, Liquid, Flow calorimetry

COC(=O)OC [dimethyl carbonate]
Conditions | mass density [kg/m3]
[1] | 1063.1 ± 0.5

CCc1ccccc1 [ethylbenzene]
Conditions | mass density [kg/m3]
[1] | 862.5 ± 0.1

CCc1ccccc1 [ethylbenzene] + COC(=O)OC
[2]
Conditions | excess molar enthalpy [kcal/mol]
x2 = 0.0501 | 0.0215 ± 0.000526
x2 = 0.1003 | 0.0489 ± 0.0011
x2 = 0.149 | 0.0639 ± 0.00141
x2 = 0.201 | 0.0848 ± 0.00186
x2 = 0.2512 | 0.104 ± 0.00227
x2 = 0.2998 | 0.119 ± 0.00263
x2 = 0.3525 | 0.133 ± 0.00287
x2 = 0.4005 | 0.143 ± 0.00311
x2 = 0.4524 | 0.15 ± 0.00335
x2 = 0.5025 | 0.153 ± 0.00335
x2 = 0.5507 | 0.153 ± 0.00335
x2 = 0.602 | 0.151 ± 0.00335
x2 = 0.6513 | 0.145 ± 0.00311
x2 = 0.7011 | 0.135 ± 0.00287
x2 = 0.7512 | 0.123 ± 0.00263
x2 = 0.8012 | 0.106 ± 0.00232
x2 = 0.8513 | 0.0865 ± 0.00189
x2 = 0.9012 | 0.0623 ± 0.00139
x2 = 0.9509 | 0.0335 ± 0.000789

Cc1cccc(C)c1 [1,3-dimethylbenzene] + COC(=O)OC
[2]
Conditions | excess molar enthalpy [kcal/mol]
x2 = 0.0502 | 0.0299 ± 0.000717
x2 = 0.1006 | 0.0579 ± 0.00129
x2 = 0.151 | 0.0824 ± 0.00182
x2 = 0.2014 | 0.102 ± 0.00222
x2 = 0.2517 | 0.119 ± 0.00263
x2 = 0.3004 | 0.133 ± 0.00287
x2 = 0.3503 | 0.144 ± 0.00311
x2 = 0.4014 | 0.153 ± 0.00335
x2 = 0.4506 | 0.158 ± 0.00335
x2 = 0.5007 | 0.16 ± 0.00359
x2 = 0.5515 | 0.16 ± 0.00335
x2 = 0.6004 | 0.156 ± 0.00335
x2 = 0.6522 | 0.149 ± 0.00311
x2 = 0.7018 | 0.14 ± 0.00311
x2 = 0.7517 | 0.127 ± 0.00263
x2 = 0.8017 | 0.109 ± 0.00239
x2 = 0.8517 | 0.0878 ± 0.00194
x2 = 0.9015 | 0.063 ± 0.00141
x2 = 0.9509 | 0.0337 ± 0.000789

Cc1ccc(C)cc1 [1,4-dimethylbenzene] + COC(=O)OC
[2]
Conditions | excess molar enthalpy [kcal/mol]
x2 = 0.0504 | 0.0295 ± 0.000693
x2 = 0.101 | 0.0543 ± 0.00122
x2 = 0.1515 | 0.0837 ± 0.00184
x2 = 0.202 | 0.102 ± 0.00222
x2 = 0.2529 | 0.119 ± 0.00263
x2 = 0.3012 | 0.133 ± 0.00287
x2 = 0.3512 | 0.145 ± 0.00311
x2 = 0.4022 | 0.153 ± 0.00335
x2 = 0.4515 | 0.159 ± 0.00335
x2 = 0.5016 | 0.161 ± 0.00359
x2 = 0.5524 | 0.16 ± 0.00359
x2 = 0.6013 | 0.156 ± 0.00335
x2 = 0.6507 | 0.149 ± 0.00311
x2 = 0.7004 | 0.139 ± 0.00311
x2 = 0.7503 | 0.125 ± 0.00263
x2 = 0.8003 | 0.109 ± 0.00237
x2 = 0.8502 | 0.0879 ± 0.00194
x2 = 0.9018 | 0.0621 ± 0.00139
x2 = 0.9511 | 0.033 ± 0.000765

Cc1ccc(C)cc1 [1,4-dimethylbenzene]
Conditions | mass density [kg/m3]
[1] | 856.7 ± 0.4

CCOC(=O)c1ccccc1 [ethyl benzoate] + COC(=O)OC
[2]
Conditions | excess molar enthalpy [kcal/mol]
x2 = 0.05 | 0.0138 ± 0.000382
x2 = 0.0999 | 0.0284 ± 0.000669
x2 = 0.1497 | 0.0413 ± 0.000956
x2 = 0.1991 | 0.0541 ± 0.00122
x2 = 0.2482 | 0.0641 ± 0.00143
x2 = 0.2984 | 0.073 ± 0.00163
x2 = 0.3495 | 0.0804 ± 0.00177
x2 = 0.4012 | 0.0861 ± 0.00189
x2 = 0.4503 | 0.09 ± 0.00198
x2 = 0.4998 | 0.0919 ± 0.00201
x2 = 0.5495 | 0.0924 ± 0.00203
x2 = 0.599 | 0.0911 ± 0.00198
x2 = 0.6506 | 0.0872 ± 0.00191
x2 = 0.6993 | 0.0831 ± 0.00182
x2 = 0.7495 | 0.075 ± 0.00165
x2 = 0.8007 | 0.0655 ± 0.00146
x2 = 0.8507 | 0.0533 ± 0.0012
x2 = 0.8993 | 0.0387 ± 0.000884
x2 = 0.9498 | 0.0207 ± 0.000526

Cc1cccc(C)c1 [1,3-dimethylbenzene]
Conditions | mass density [kg/m3]
[1] | 860 ± 0.5

Cc1ccccc1C [1,2-dimethylbenzene]
Conditions | mass density [kg/m3]
[1] | 875 ± 0.5

CCOC(=O)c1ccccc1 [ethyl benzoate]
Conditions | mass density [kg/m3]
[1] | 1041.3 ± 0.5

Cc1ccccc1C [1,2-dimethylbenzene] + COC(=O)OC
[2]
Conditions | excess molar enthalpy [kcal/mol]
x2 = 0.0511 | 0.0266 ± 0.000645
x2 = 0.1006 | 0.0553 ± 0.00124
x2 = 0.1503 | 0.0795 ± 0.00174
x2 = 0.2016 | 0.0932 ± 0.00203
x2 = 0.2513 | 0.106 ± 0.00232
x2 = 0.3024 | 0.125 ± 0.00263
x2 = 0.3519 | 0.137 ± 0.00287
x2 = 0.3998 | 0.147 ± 0.00311
x2 = 0.4514 | 0.153 ± 0.00335
x2 = 0.5013 | 0.155 ± 0.00335
x2 = 0.5519 | 0.153 ± 0.00335
x2 = 0.6007 | 0.149 ± 0.00311
x2 = 0.6502 | 0.142 ± 0.00311
x2 = 0.7002 | 0.132 ± 0.00287
x2 = 0.7504 | 0.12 ± 0.00263
x2 = 0.8008 | 0.104 ± 0.00227
x2 = 0.8513 | 0.0841 ± 0.00184
x2 = 0.8998 | 0.0605 ± 0.00134
x2 = 0.9501 | 0.0322 ± 0.000765
